The target of assay [1] is Adenosine receptor A2a (Homo sapiens, UniProt P29274). Briefly: Displacement of [3H]NECA from human adenosine A2A receptor expressed in CHO cells.
In assay [2] the target is T1, Adenosine receptor A1 (Homo sapiens, UniProt P30542).
T1 sequence (P30542 whole entry): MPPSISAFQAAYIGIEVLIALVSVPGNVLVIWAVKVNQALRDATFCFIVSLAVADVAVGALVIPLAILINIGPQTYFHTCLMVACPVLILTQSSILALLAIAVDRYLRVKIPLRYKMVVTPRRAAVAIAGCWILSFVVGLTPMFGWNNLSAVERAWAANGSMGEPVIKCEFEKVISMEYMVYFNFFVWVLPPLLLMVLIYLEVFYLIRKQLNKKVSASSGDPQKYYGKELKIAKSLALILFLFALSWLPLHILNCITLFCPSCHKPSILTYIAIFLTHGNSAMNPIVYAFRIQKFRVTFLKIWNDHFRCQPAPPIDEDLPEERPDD
Briefly: Displacement of [3H]DPCPX from human adenosine A1 receptor expressed in CHO cells.

Adenosine receptor A2a, sequence (P29274 whole entry): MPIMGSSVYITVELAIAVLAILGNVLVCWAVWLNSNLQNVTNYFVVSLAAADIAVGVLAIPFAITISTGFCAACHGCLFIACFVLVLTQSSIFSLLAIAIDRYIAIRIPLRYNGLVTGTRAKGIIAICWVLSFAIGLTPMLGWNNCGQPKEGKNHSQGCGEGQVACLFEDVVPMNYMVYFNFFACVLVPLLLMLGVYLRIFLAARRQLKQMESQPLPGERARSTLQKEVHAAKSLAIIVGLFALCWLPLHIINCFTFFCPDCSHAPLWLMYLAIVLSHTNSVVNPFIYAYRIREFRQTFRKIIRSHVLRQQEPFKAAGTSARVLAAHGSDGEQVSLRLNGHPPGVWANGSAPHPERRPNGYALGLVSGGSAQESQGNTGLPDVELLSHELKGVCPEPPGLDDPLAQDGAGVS

In the case of `O=c1c2[nH]nnc2nc2n1CCCS2` [7,8-Dihydro-3H,6H-5-thia-1,2,3,4,8a-pentaaza-cyclopenta[b]naphthalen-9-one], the Ki in assay [1] and in assay [2] was above 10 µM each time.
Regarding `CC1CSc2nc3nn[nH]c3c(=O)n21` (centres undefined) [7-methyl-6,7-dihydro[1,3]thiazolo[3,2-a][1,2,3]triazolo[4,5-d]pyrimidin-9(3H)-one], the Ki in assay [1] and in assay [2] was above 10 µM each time.

The values above are taken from BindingDB's records for doi:10.1021/jm050792d (University of Naples Federico II, 2005).
